Drawing on ChEMBL document CHEMBL1134101, “The cyclohexene ring as bioisostere of a furanose ring: synthesis and antiviral activity of cyclohexenyl nucleosides” (Bioorg Med Chem Lett, 2001), this text covers EC50 and IC50 for four molecules.

Values after ≈ are worked out from the molar mass of the structure shown.

Experiment [1] relates to Cytomegalovirus. Put plainly: Effective concentration required against HCMV AD169 for antiviral activity. It is filed as functional, organism-based, Human betaherpesvirus 5.
In experiment [2] the test system is Cytomegalovirus. The experiment can be described thus: Tested for antiviral activity against HCMV (AD169). It is filed as functional, organism-based, Human betaherpesvirus 5.
Experiment [3] has as its system Human alphaherpesvirus 1. Put plainly: Tested for antiviral activity against HSV-1 (KOS). The format is functional, organism-based.
Experiment [4] has as its system Human alphaherpesvirus 1. The experiment can be described thus: Tested for antiviral activity against HSV-1 (TK-KOS). The format is functional, organism-based.
In the next experiment the test system is Hepatitis B virus. Put plainly: Tested for antiviral activity against HBV (Hep AD79). It is filed as functional, organism-based.
The subject of another experiment is Human alphaherpesvirus 2. Put plainly: Tested for antiviral activity against HSV-2 (G). The format is functional, organism-based.
The test system of experiment [5] is Human alphaherpesvirus 3. The experiment can be described thus: Tested for antiviral activity against VZV ([…]). It is filed as functional, organism-based.
Experiment [6] deals with Human alphaherpesvirus 3. Put plainly: Tested for antiviral activity against VZV (YS). The format is functional, organism-based.
Experiment [7] has as its system Cytomegalovirus. The experiment can be described thus: Effective concentration required against HCMV strain for antiviral activity. To be noted: Human betaherpesvirus 5. It is filed as functional, organism-based.
[8] abbreviates: Human betaherpesvirus 5, read-out: EC50.
[9] abbreviates: Human alphaherpesvirus 1, read-out: IC50.
Where [10] appears, read: Hepatitis B virus, read-out: IC50.
[11] abbreviates: Human alphaherpesvirus 2, read-out: IC50.

On to `Nc1nc2c(ncn2COC(CO)CO)c(=O)[nH]1` [GANCICLOVIR], for which, in the experiment on Cytomegalovirus [1] (setting [8]), the EC50 – broadly, the concentration giving half of the maximal effect – came out at 0.77 µg/mL (≈ 3.02 µM). The IC50 (in general, the concentration that gives 50% inhibition) in the experiment with Cytomegalovirus [2] (Human betaherpesvirus 5, read-out: IC50) amounted to 0.6 µg/mL (≈ 2.35 µM); in the experiment on Human alphaherpesvirus 1 [3] (setting [9]), 0.001 µg/mL (≈ 0.00392 µM); with Human alphaherpesvirus 1 [4] (setting [9]) it was 0.48 µg/mL (≈ 1.88 µM); in the experiment with Hepatitis B virus (setting [10]), 45 µg/mL (≈ 176 µM); in the experiment on Human alphaherpesvirus 2 (setting [11]), 0.002 µg/mL (≈ 0.00784 µM).
As for `Nc1nc(O)c2ncn(C3C=CC(CO)C(O)C3)c2n1` (stereo in doubt; form 2), the half-inhibitory concentration (IC50) with Human alphaherpesvirus 3 [5] is 5.8 µg/mL (≈ 20.9 µM); in the experiment on Human alphaherpesvirus 3 [6], 1.2 µg/mL (≈ 4.33 µM); in the experiment with Cytomegalovirus [2] it was 1.5 µg/mL (≈ 5.41 µM); in the experiment on Human alphaherpesvirus 1 [3] (setting [9]) it was 0.003 µg/mL (≈ 0.0108 µM); in the experiment on Human alphaherpesvirus 1 [4], 1.28 µg/mL (≈ 4.62 µM); with Hepatitis B virus (setting [10]) it was 3 µg/mL (≈ 10.8 µM). Besides, in the experiment with Human alphaherpesvirus 2 (setting [11]), the IC50 stood at 0.07 µg/mL (≈ 0.252 µM). The EC50 in the experiment on Cytomegalovirus [1] worked out at 1.05 µg/mL (≈ 3.79 µM).
For `Nc1nc(O)c2ncn(C3C=CC(CO)C(O)C3)c2n1` (stereo in doubt; form 1), the IC50 in the experiment on Human alphaherpesvirus 3 [5] is 2.1 µg/mL (≈ 7.57 µM); with Human alphaherpesvirus 3 [6], 0.49 µg/mL (≈ 1.77 µM); in the experiment on Cytomegalovirus [2], 0.6 µg/mL (≈ 2.16 µM); in the experiment with Human alphaherpesvirus 1 [3] it was 0.002 µg/mL (≈ 0.00721 µM); with Human alphaherpesvirus 1 [4] it was 0.38 µg/mL (≈ 1.37 µM); in the experiment on Hepatitis B virus, 3 µg/mL (≈ 10.8 µM). For the same molecule, the IC50 with Human alphaherpesvirus 2 amounted to 0.05 µg/mL (≈ 0.18 µM). In addition, in the experiment with Cytomegalovirus [1], the EC50 stood at 0.47 µg/mL (≈ 1.7 µM).
With `Nc1nc2c(ncn2COCCO)c(=O)[nH]1` [ACYCLOVIR], the EC50 in the experiment on Cytomegalovirus [7] and with Cytomegalovirus [1] (setting [8]) was 16 µg/mL (≈ 71 µM) throughout. Besides, the IC50 was 0.01 µg/mL (≈ 0.0444 µM) with Human alphaherpesvirus 1 [3] (setting [9]), 9.6 µg/mL (≈ 42.6 µM) in the experiment on Human alphaherpesvirus 1 [4] (setting [9]), over 50 µg/mL with Hepatitis B virus (setting [10]) and 0.02 µg/mL (≈ 0.0888 µM) with Human alphaherpesvirus 2 (setting [11]).
